Test results reported in US9884863B2, “STAT3 inhibitor” (Board of Regents, The University of Texas System, priority 2013, dated 2018).
Like-named read-outs stand apart in the source and are kept apart here.

What was measured:
[1] = system: MCF-7, MDA-MB-231, AsPC1 and Panc-1; assay: MTS proliferation assays, breast and pancreatic cancer cell line panel; type: cell-based, human; conditions: Example 4 numbering
Description: (§1) In Vitro Determination of Effects of Synthesized Compounds on Cancer Cell Proliferation. Cancer cells (breast cancer cell lines MCF-7 and MDA-MB-231, pancreatic cancer cell lines AsPC-1 and Panc-1) were seeded in 96-well plates at a density of 2×10^3 cells/well and treated with DMSO, 0.01, 0.1, 1, 5, 10, and 100 μM of individual STAT3 inhibitors for 72 h. Proliferation was measured by treating cells with the 3-(4,5-dimethylthiazol-2-yl)-5-(3-carboxymethoxyphenyl)-2-(4-sulfophenyl)-2H-tetrazolium) (MTS) in a CellTiter 96t Aqueous Non-Radioactive Cell Proliferation Assay kit (Promega, Madison, Wis., USA). Absorbance of all wells was determined by measuring OD at 550 nm after 1 h incubation at 37° C. on a 96-well iMark™ Microplate Absorbance Reader (BioRad, Hercules, Calif.). Each individual compound was tested in quadruplicate wells for each concentration.

MCF-7 = assay: MTS cell proliferation assay, MCF-7; type: cell-based, human
Outline: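 MCF-7 human breast cancer cells were exposed to test compounds at a range of concentrations, then proliferation was measured with the MTS reagent from Promega's CellTiter 96 AQueous Non-Radioactive Cell Proliferation Assay kit. After 1 hr at 37° C., OD at 550 nm was read on a 96-well iMark Microplate Absorbance Reader, with quadruplicate wells per concentration.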

MDA-MB-231 = assay: MTS cell proliferation assay, MDA-MB-231; type: cell-based, human
Outline: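 Cells are exposed to DMSO or STAT3 inhibitors at 0.01-100 μM for 72 h, or at 1, 5 and 10 μM. Proliferation is read by MTS absorbance at 550 or 560 nm after 1 h at 37 °C. Each concentration is run in quadruplicate wells.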

Panc-1 = assay: MTS cell proliferation assay, Panc-1; type: cell-based, human
Description: (§2) Cancer cells (breast cancer cell lines MCF-7, MDA-MB-361, SKBR3 and MDA-MB-231, pancreatic cancer cell lines AsPC-1. BxPC3 and Panc-1) were seeded in 96-well plates at a density of 1000-2000 cells/well and treated with DMSO, 0.01, 0.1, 1, 5, 10, and […] of STAT3 individual inhibitors for 72 hrs. Proliferation was measured by treating cells with the 3-(4,5-dimethylthiazol-2-yl)-5-(3-carboxymethoxyphenyl)-2-(4-sulfophenyl)-2H-tetrazolium) (MTS) in a CellTiter 96t AQueous Non-Radioactive Cell Proliferation Assay kit from Promega, Madison, Wis., USA). Absorbance of all wells was determined by measuring OD at 550 nm after 1 hr incubation at 37° C. on a 96-well iMark™ Microplate Absorbance Reader (BioRad, Hercules, Calif.). Each individual compound was tested in quadruplicate wells for each concentration, and the results were reported as mean absorption±s.e.
as §1

AsPC1 = assay: MTS cell proliferation assay, AsPC1; type: cell-based, human
Description: as §2, §1

MDA-MB-361 = assay: MTS cell proliferation assay, MDA-MB-361; type: cell-based; conditions: Homo sapiens, ER-positive breast cancer, 72 hrs, >10 = no effect, read-out: IC50 MDA-MB-361 (Table 1)
Description: as §2

SKBR3 = assay: MTS cell proliferation assay, SKBR3; type: cell-based; conditions: Homo sapiens, SK-BR-3; ER-negative breast cancer, 72 hrs; >10 = no effect; read-out: IC50 SKBR3 (Table 1)
Description: as §2

BxPc-3H = assay: MTS cell proliferation assay, BxPc-3H; type: cell-based; conditions: Homo sapiens; pancreatic cancer, 72 hrs; >10 = no effect; read-out: IC50 BxPc-3H (Table 1)
Description: as §2

[2] = system: MDA-MB-231 xenograft tumors; assay: MDA-MB-231 xenograft tumor growth in nude mice; type: in vivo; conditions: i.p., 2.5, 7.5 and 12.5 mg/kg
[3] = Homo sapiens, MCF7; Example 4 numbering, 72 h; >10 = no effect; read-out: IC50 MCF-7 (Table 5)
[4] = Homo sapiens, MDA-MB-231, Example 4 numbering, 72 h, >10 = no effect, read-out: IC50 MDA-MB-231 (Table 5)
[5] = Homo sapiens, MCF7, 72 h, read-out: IC50 MCF-7 (Table 1)
[6] = MCF-7, 48 hr, μM concentrations
[7] = Homo sapiens, PANC-1, 72 h, read-out: IC50 Panc-1 (Table 1)
[8] = Homo sapiens, MDA-MB-231, 72 h, read-out: IC50 MDA-MB-231 (Table 1)
[9] = Homo sapiens, ASPC1, 72 h, read-out: IC50 AsPC1 (Table 1)
[10] = Homo sapiens, MCF7, 72 h; read-out: IC50 MCF-7 (Table 1)
[11] = Homo sapiens, PANC-1, pancreatic cancer, 72 hrs, >10 = no effect, read-out: IC50 Panc-1 (Table 1)
[12] = Homo sapiens, MDA-MB-231, ER-negative breast cancer, 72 hrs, >10 = no effect, read-out: IC50 MDA-MB-231 (Table 1)
[13] = Homo sapiens, ASPC1, pancreatic cancer, 72 hrs, >10 = no effect, read-out: IC50 AsPC1 (Table 1)

Row | Molecule | IC50 (MDA-MB-361) [µM] | inhibition on breast cancer cell proliferation (FIG. 1) (MCF-7; [6]) | IC50 (SKBR3) [µM] | IC50 (BxPc-3H) [µM] | IC50 (MCF-7; [10]) [µM] | IC50 (Panc-1; [11]) [µM] | IC50 (MDA-MB-231; [12]) [µM] | IC50 (AsPC1; [13]) [µM] | also measured
1 | O=C(Nc1ccc2c(c1)S(=O)(=O)C=C2)c1ccncc1 [Compound 21, N-(1,1-Dioxo-1H-1λ^6-benzo[b]thiophen-6-yl)isonicotinamide] |  |  |  |  |  |  |  |  | antiproliferative activity in words (Example 4) [1]: moderate to low antiproliferative activity; IC50 (MCF-7; [3]): > 10 µM; IC50 (MDA-MB-231; [4]): > 10 µM; melting point: 251 to 252 °C
2 | O=C(Nc1ccc2c(c1)S(=O)(=O)C=C2)c1ccnc(-c2ccccc2)c1 [Compound 22, N-(1,1-Dioxo-1H-1λ^6-benzo[b]thiophen-6-yl)-2-phenyl-isonicotinamide] |  |  |  |  |  |  |  |  | antiproliferative activity in words (Example 4) [1]: low micromolar IC50 values; IC50 (MCF-7; [3]): 3.78 µM; IC50 (Panc-1; Homo sapiens, PANC-1, Example 4 numbering, 72 h, >10 = no effect, read-out: IC50 Panc-1 (Table 5)): 3.35 µM; IC50 (MDA-MB-231; [4]): 1.85 µM; IC50 (AsPC1; Homo sapiens, ASPC1, Example 4 numbering, 72 h, >10 = no effect, read-out: IC50 AsPC1 (Table 5)): 1.3 µM; melting point: 285 to 286 °C
3 | O=C(Nc1ccc2c(c1)S(=O)(=O)C=C2)c1cc(-c2ccccc2)nc2ccccc12 [HJC-1-23, 2-Phenyl-quinoline-4-carboxylic acid (1,1-dioxo-1H-1λ^6-benzo[b]thiophen-6-yl)-amide] | 0.24 | significant inhibition | 0.22 | 0.2 |  |  |  |  | IC50 (MCF-7; [5]): 0.1 µM; IC50 (Panc-1; [7]): 0.26 µM; IC50 (MDA-MB-231; [8]): 0.29 µM; IC50 (AsPC1; [9]): 1.25 µM
4 | O=C(Nc1ccc([N+](=O)[O-])cc1Cl)c1cc(Cl)ccc1OC1CCNCC1 [HJC-1-25, 5-Chloro-N-(2-chloro-4-nitro-phenyl)-2-(piperidin-4-yloxy)benzamide] | 0.18 | significant inhibition | 0.28 | 0.27 | 0.25 | 0.54 | 0.29 | 2.76 | 
5 | C[C@H](NC(=O)c1cc(-c2ccccc2)nc2ccccc12)c1ccccc1 [HJC-1-28, 2-Phenyl-quinoline-4-carboxylic acid (1-phenyl-ethyl)amide] | 132 |  | 45.9 | 16.4 | 2.24 | 15.4 | 86 | > 10 | 
6 | Nc1ccc(NC(=O)c2cc(Cl)ccc2O)c(Cl)c1 [HJC-1-29, N-(4-Amino-2-chloro-phenyl)-5-chloro-2-hydroxy-benzamide] | 14.9 |  | 16.1 | > 10 | > 10 | > 10 | > 10 | > 10 | 
7 | C[C@H](NC(=O)c1cc(Cl)ccc1O)c1ccccc1 [HJC-1-30, 5-Chloro-2-hydroxy-N-(1-phenyl-ethyl)benzamide] | 6.39 | significant inhibition | 6.51 | 7.26 | 0.9 | 8.44 | 8.88 | 7.54 | 
8 | CS(=O)(=O)Nc1ccc(NC(=O)c2cc(Cl)ccc2O)c(Cl)c1 [HJC-1-31, 5-Chloro-N-(2-chloro-4-methanesulfonylamino-phenyl)-2-hydroxybenzamide] | 43 |  | > 10 | > 10 | > 10 | 0.84 | > 10 | > 10 | 
9 | O=C(Nc1ccc2c(c1)S(=O)(=O)C=C2)c1cc(-c2ccccc2)nc(-c2ccccc2)c1 [HJC-1-36, N-(1,1-Dioxo-1H-1λ^6-benzo[b]thiophen-6-yl)-2,6-diphenyl-isonicotinamide] | 0.23 | significant inhibition | 0.2 | 0.27 | 0.65 | 0.31 | 0.45 | 0.12 | 
10 | CC(=O)Nc1ccc(NC(=O)c2cc(Cl)ccc2OC(C)=O)c(Cl)c1 [HJC-1-37, Acetic acid 2-(4-acetylamino-2-chloro-phenylcarbamoyl)-4-chlorophenyl ester] | 9.23 |  | 9.14 | 13.2 | 11.7 | 27.9 | > 10 | 11.6 | 
11 | CC(=O)Nc1ccc(NC(=O)c2cc(Cl)ccc2O)c(Cl)c1 [HJC-1-40, N-(4-Acetylamino-2-chlorophenyl)-5-chloro-2-hydroxybenzamide] | 22.8 |  | 11.2 | > 10 | > 10 | > 10 | 66.3 | 37.6 | 
12 | O=C(Nc1ccc2c(c1)S(=O)(=O)C=C2)c1c2ccccc2nc2ccccc12 [HJC-1-41, Acridine-9-carboxylic acid (1,1-dioxo-1H-1λ^6-benzo[b]thiophen-6-yl)amide] | 170 |  | > 10 | > 10 |  |  |  |  | IC50 (MCF-7; [5]): > 10 µM; IC50 (Panc-1; [7]): > 10 µM; IC50 (MDA-MB-231; [8]): > 10 µM; IC50 (AsPC1; [9]): > 10 µM
13 | O=C(Nc1ccc2c(c1)S(=O)(=O)C=C2)c1cc(Cl)ccc1O [HJC-1-49, 5-Chloro-N-(1,1-dioxo-1H-1λ^6-benzo[b]thiophen-6-yl)-2-hydroxybenzamide] | 2.37 | significant inhibition | 0.72 | 1.16 | 0.91 | 2.34 | 1.64 | 1.92 | 
14 | O=C(Nc1nnc(-c2ccco2)o1)c1cc(Cl)ccc1O [HJC-1-51, 5-Chloro-N-(5-furan-2-yl-[1,3,4]oxadiazol-2-yl)-2-hydroxybenzamide] | > 10 |  | 42.4 | 200 | > 10 | > 10 | > 10 | > 10 | 
15 | NCCOc1ccc(Cl)cc1C(=O)Nc1ccc([N+](=O)[O-])cc1Cl [HJC-1-52, 2-(2-Aminoethoxy)-5-chloro-N-(2-chloro-4-nitrophenyl)benzamide] | 2.37 | significant inhibition |  | 1.07 | 0.91 | 1.08 | 1.64 | 1.9 | growth of xenograft tumors (FIG. 3) [2]: significantly suppresses tumor growth
16 | Quinoline-3-carboxylic acid (1,1-dioxo-1H-1λ^6-benzo[b]thiophen-6-yl)amide [Compound 23] |  |  |  |  |  |  |  |  | antiproliferative activity in words (Example 4) [1]: moderate to low antiproliferative activity; IC50 (MCF-7; Example 4 numbering, 72 h; >10 = no effect; read-out: IC50 MCF-7 (Table 5)): 2.97 µM; IC50 (Panc-1; Example 4 numbering, 72 h, >10 = no effect, read-out: IC50 Panc-1 (Table 5)): 7.92 µM; IC50 (MDA-MB-231; Example 4 numbering, 72 h, >10 = no effect, read-out: IC50 MDA-MB-231 (Table 5)): 6.21 µM; IC50 (AsPC1; Example 4 numbering, 72 h, >10 = no effect, read-out: IC50 AsPC1 (Table 5)): 6.97 µM
